The values that follow come from US20170007617A1, “INTRAVENOUS FORMULATIONS OF A LATE SODIUM CURRENT INHIBITOR” (Gilead Sciences Drive, priority 2015, published 2017).

What all share (assay type): physicochemical
A short description of data set [1]: Solubility of Compound (I) in water and solubilizing vehicles.
A short description of data set [2]: Chemical stability in solution.
The nature of data set [3]: Precipitation upon dilution of pre-concentrate into saline. Particulars: pre-concentrated formulation of 40% TWEEN 80 and 60% PEG 400.

In general, solubility refers to the concentration that dissolves in the medium under given conditions.

Values after ≈ are worked out from the molar mass of the structure shown. Where two headings read alike, the source gives them in different places.

For the compound `O=C1c2cc(-c3ccc(OC(F)(F)F)cc3)ccc2OCCN1Cc1ncccn1` [Compound (I), 4-(pyrimidin-2-ylmethyl)-7-(4-(trifluoromethoxy)phenyl)-3,4-dihydrobenzo[f][1,4]oxazepin-5(2H)-one], the solubility in data set [1] (1.6% TWEEN 80 and 2.4% PEG 400 in water, aqueous with cosolvent or surfactant or cyclodextrin, 1.6% TWEEN 80 and 2.4% PEG 400 in water, read-out: solubility) was 1400 µg/mL (≈ 3.37 mM); in data set [1] (40% TWEEN 80 and 60% PEG 400, organic solvent or mixture, 40% TWEEN 80 and 60% PEG 400, read-out: solubility) it was more than 100000 µg/mL; in data set [1] (about 0.4% TWEEN 80 and about 0.6% PEG 400 in water, aqueous with cosolvent or surfactant or cyclodextrin, about 0.4% TWEEN 80 and about 0.6% PEG 400 in water, read-out: solubility), 400 µg/mL (≈ 0.963 mM); in data set [1] (oil-in-water emulsion with 20% oil, oil or lipid, oil-in-water emulsion with 20% oil, read-out: solubility) it was not above 5000 µg/mL; in data set [1] (safflower oil, oil or lipid, safflower oil, read-out: solubility in triglycerides) it was approximately 25000 µg/mL (≈ 60.2 mM); in data set [1] (water with 3.6% Captisol, aqueous with cosolvent or surfactant or cyclodextrin, water with 3.6% Captisol, read-out: solubility), 1100 µg/mL (≈ 2.65 mM). In addition, the solubility in data set [1] (water with 7% hydroxypropyl-β-cyclodextrin, aqueous with cosolvent or surfactant or cyclodextrin, water with 7% hydroxypropyl-β-cyclodextrin, read-out: solubility) is 3200 µg/mL (≈ 7.7 mM); in data set [1] (water with 12% Captisol, aqueous with cosolvent or surfactant or cyclodextrin, water with 12% Captisol, read-out: solubility), 3900 µg/mL (≈ 9.39 mM); in data set [1] (water with 14% hydroxypropyl-β-cyclodextrin, aqueous with cosolvent or surfactant or cyclodextrin, water with 14% hydroxypropyl-β-cyclodextrin, read-out: solubility) it was 7400 µg/mL (≈ 17.8 mM); in data set [1] (water with 28% hydroxypropyl-β-cyclodextrin, aqueous with cosolvent or surfactant or cyclodextrin, water with 28% hydroxypropyl-β-cyclodextrin, read-out: solubility) it was 18000 µg/mL (≈ 43.3 mM); in data set [1] (water with 36% Captisol, aqueous with cosolvent or surfactant or cyclodextrin, water with 36% Captisol, read-out: solubility), 13700 µg/mL (≈ 33 mM); in data set [1] (water, read-out: water solubility), 10 µg/mL (≈ 0.0241 mM). For the same compound, the “amount of PEG 400 required to achieve 0.3 mg/mL” value in data set [1] (PEG 400/water co-solvent system, 0.3 mg/mL needed in infusion media for 15 mg dose) is recorded as “more than 30%”. Moreover, the water solubility result in data set [1] (water, listed as compound of formula (I)) is “about 0.01 mg/mL”. Further, the “chemical stability in solution” value in data set [2] is “chemically stable in solution”. For the same compound, the “concentration needed to avoid precipitation upon dilution” value in data set [3] was not above 30000 µg/mL.
